Assays:
white pulp splenocytes = assay: Total body irradiation of mice (8 Gy), TUNEL-positive white pulp splenocytes; type: in vivo, mouse
Source text: Mice were exposed to total body irradiation and the radioprotective effects of Zn^+-chelates administered before or after the irradiation were examined. Each unanesthetized mouse was placed temporarily in a well ventilated plexiglass restrainer and exposed to total body irradiation from a cesium irradiator. A dose of 8 Gy was chosen on the basis of previous studies utilizing male CD-1 mice (Bichay et al., 1986, supra). A total of 6-10 animals per group were used. The animals were allowed to survive for 36 hr after irradiation.
To test for radioprotective effects, Zn-DIPS was injected subcutaneously twice a day 15 mg/kg each time (i.e., 30 mg/kg/day). One group of animals (“before”) received Zn-DIPS starting 2 days before irradiation and continued until 36 hr after irradiation. Another group (“after”) was injected with Zn-DIPS about 30 min […] irradiation and continued until euthanasia. “Vehicle” control animals were injected with vehicle (i.e., saline) for the duration of the experiment, and irradiated with the same dose.
FIG. 12 presents the number of TUNEL-positive cells in white pulp splenocytes from the different groups.

FRTL-5 thyroid cells = assay: Radiation-induced thyroid cell death (450 Gy), LDH release assay or Comet assay; type: cell-based; settings: added after radiation, 24 hr
Protocol: FRTL-5 thyroid cells (ATCC, catalog #CRL8305) were irradiated with 450 Gy without or with Zn^2+-chelates added before and/or after irradiation. […] In another experiment, Zn^2+-chelates (i.e., Zn-captopril, Zn-NAC, Zn-penicillamine, or Zn-PTCA) were added to human U937 cells either 30 minutes before, immediately after, or up to 4 hours after irradiation (4 Gy).

[1] = molecular target: T1, recombinant human DNase I (Homo sapiens, UniProt P24855); assay: Plasmid incision assay of endonuclease activity, recombinant DNase I; type: biochemical
T1 construct: Recombinant DNase I was produced using a similar approach; made in house
T1 sequence (P24855 23-282): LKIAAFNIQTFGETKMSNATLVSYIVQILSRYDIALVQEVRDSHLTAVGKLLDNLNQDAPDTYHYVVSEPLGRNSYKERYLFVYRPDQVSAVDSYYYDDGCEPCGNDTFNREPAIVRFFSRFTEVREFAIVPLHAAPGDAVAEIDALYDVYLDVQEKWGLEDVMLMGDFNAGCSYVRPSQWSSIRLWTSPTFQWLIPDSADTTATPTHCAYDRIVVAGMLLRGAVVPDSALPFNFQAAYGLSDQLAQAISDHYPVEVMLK
Protocol: It was hypothesized that Zn^2+-chelates of aminothiols could provide radioprotection via their direct inhibition of nucleases and their antioxidant properties (i.e., prevent nuclease induction and release). To test this hypothesis, the activity of Zn(II) chelates to inhibit nucleases was assayed in vitro. For this, DNase I and EndoG were cloned, recombinant nuclease were expressed and purified for the in vitro assay. Human and mouse mature EndoG cDNA was reverse transcribed by RT-PCR from either normal human breast epithelial HMEC cells (Clonetics, Walkersville, Md.) or immortalized mouse proximal tubule epithelial TKPTS cells (obtained from D. Elsa Bello-Reuss, University of Texas Medical Branch, Galveston). The plasmid for mature human EndoG (A49-K297) with a C-terminal histidine tag and mouse mature EndoG (A45-K294) with a C-terminal histidine tag were constructed by inserting coding cDNA into pET29b(+) (Novagen, San Diego, Calif.) and expressed in Escherichia coli BL21 (DE3) cells using standard procedures. Expression of the recombinant proteins was induced by IPTG. The expressed recombinant protein was purified by HisTrap FF crude Kit (GE Healthcare, Uppsala, Sweden) and stored in 20 mM Tris-HCl, ph 7.5, 0.5 M NaCl, 2 mM 2-mercaptoethanol, and 50% glycerol.
(§1) Endonuclease activity was measured using a plasmid incision assay. Activity was measured in 20 μl samples containing 1 μg pBR322 plasmid DNA, 10 mM Tris-HCl, pH 7.7, 25 μg/ml bovine serum albumin V fraction, 0.5 mM dithiothreitol, 5 mM MgCl2, 2 mM CaCl2, and 2 μl endonuclease. After 1 hour incubation at 37° C., the reaction was stopped by the addition 5 μl 1% SDS, 100 mM EDTA. Digested DNA was then subjected to a 1% agarose gel electrophoresis at 7 V/cm for 1 hour at room temperature. The gel was stained in 0.5 μg/ml ethidium bromide solution for 20 minutes and photographed under […]. Scanning densitometer Fotodyne (Fotodyne Inc., Hartland, Wis.) was utilized to quantify the relative amount of endonuclease-treated plasmid DNA present in a covalently closed circular DNA (cccDNA), open circular DNA (ocDNA) or linear DNA (linDNA). One endonuclease unit was defined as the amount of enzyme required to convert 1 μg cccDNA to ocDNA and linDNA.
(§2) Recombinant DNase I and rat serum DNase (which is predominantly rat DNase I) were incubated with 0, 100, or 200 μM of a Zn^2+-chelate (i.e., Zn-3,5-diisopropylsalicylic acid (DIPS), Zn-gluconate, or Zn-glycinate), a ligand (i.e., DIPS, gluconic acid, or glycine, as negative controls), or ZnCl2 (as positive control).

[2] = molecular target: T2, rat serum DNase (predominantly rat DNase I) (Rattus norvegicus, UniProt P21704); assay: Plasmid incision assay of endonuclease activity, rat serum DNase; type: biochemical; settings: 0, 100 or 200 μM; 1 hour at 37° C.; pBR322 plasmid DNA
T2 construct: rat serum DNase (which is predominantly rat DNase I); from tissue; host or cells: rat serum
T2 sequence (P21704 23-284): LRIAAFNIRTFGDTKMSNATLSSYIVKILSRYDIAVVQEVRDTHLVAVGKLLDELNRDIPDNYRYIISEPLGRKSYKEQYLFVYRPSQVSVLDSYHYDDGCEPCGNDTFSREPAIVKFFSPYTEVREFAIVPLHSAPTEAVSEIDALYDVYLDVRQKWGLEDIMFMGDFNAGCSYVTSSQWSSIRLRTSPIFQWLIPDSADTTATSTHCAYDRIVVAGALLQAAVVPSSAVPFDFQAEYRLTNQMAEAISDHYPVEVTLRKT
Protocol: as §1, §2

Zn-3,5-diisopropylsalicylic acid [Zn-DIPS]
Radioprotection (TUNEL-positive white pulp splenocytes), administered before irradiation (white pulp splenocytes; 15 mg/kg s.c. twice a day from 2 days before until 36 hr after irradiation): partial radioprotection
Radioprotection (TUNEL-positive white pulp splenocytes), administered after irradiation (white pulp splenocytes; 15 mg/kg s.c. twice a day, "after" group): partial radioprotection
Protection of spleen compared with inactivation of DNase I (white pulp splenocytes; versus DNase I knock-out mice): better protection
Protection from radiation-induced thyroid cell death (FRTL-5 thyroid cells): provided protection
Inhibition of DNase I activity ([1]; 0, 100 or 200 μM, 1 hour at 37° C., pBR322 plasmid DNA): inhibited
Ranking of nuclease inhibition among the Zn^2+-chelates tested ([1]; DNase I and serum DNase, FIG. 5): best inhibition
Inhibition of serum DNase activity [2]: inhibited

— US8916712B2, “Compositions and methods for cytoprotection” (Board of Trustees of the University of Arkansas, priority 2007, dated 2014)
